Experimental data published in patent publication US10632119B2, “Fused bicyclic 2,4-diaminopyrimidine derivative as a dual ALK and FAK inhibitor” (priority 2012, dated 2020).
Read-outs that look alike come from different tables or passages of the source.

Columns and labels:
[1] = 4-week oral toxicity and toxicokinetic study of CEP-37440 in monkeys, 4-week recovery; format: in vivo, cynomolgus monkeys (Macaca fascicularis)
Description: Male and female cynomolgus monkeys (Macaca fascicularis) were assigned to 4 groups (3-treated and a vehicle control group) consisting of 5 monkeys/sex/group. Dose levels evaluated in this study were 0 (pH-adjusted reverse osmosis water), 2.5, 7.5, and 20 mg/kg/day. The dosing volume was 5 mL/kg. CEP-37440 was administered as the trihydrochloride dihydrate salt form. After completion of the dosing phase, 3 monkeys/sex/group were euthanized and 2 monkeys/sex/group continued on a treatment-free recovery phase for an additional 4 weeks.

[2] = test system: HCC-827 human NSCL carcinoma xenografts
Description: Anti-Tumor Efficacy Studies in Human Tumor Xenografts of Hormone-Independent Prostate Carcinoma, NSCL Carcinoma and HNSC Carcinoma
The human prostate carcinoma cell lines, CWR22 and PC3, and human head and neck squamous cell carcinoma cell line Detroit 562 were obtained from American Tissue Culture Collection (ATCC, Manassas, Va.). […] Human non-small cell lung cancer cell line HCC-827 and human breast cancer cell line BT474 were also purchased from the ATCC (Manassas, Va.) and cultured in RPMI (Cat #10-040, Mediatech Inc, Manassas, Va.) with 10% FBS. The rabbit phospho-FAK (Tyr397) (Cat #3283) and FAK antibodies (Cat #3285) were purchased from Cell Signaling Technology (Beverly, Mass.).
The mice were then monitored daily.
The tumor volumes were then calculated with the formula of 0.5236*L*W*(L+W)/2.

Protein binding, dog = format: in vitro ADME; settings: dog (D)

With `CNC(=O)c1ccccc1Nc1nc(Nc2ccc3c(c2OC)CCC[C@H](N2CCN(CCO)CC2)C3)ncc1Cl` [CEP-37440, 2-[[5-chloro-2-[[(6S)-6-[4-(2-hydroxyethyl)piperazin-1-yl]-1-methoxy-6,7,8,9-tetrahydro-5H-benzo[7]annulen-2-yl]amino]pyrimidin-4-yl]amino]-N-methyl-benzamide] the survival ([1]; 2.5, 7.5, 20 mg/kg/day, 4 weeks) was “All animals survived until their scheduled sacrifice”, the ECG ([1]; 2.5, 7.5, 20.0 mg/kg/day, Days 3 and 27 of dosing, Day 28 of recovery) was “No drug-related changes in PR interval, QRS duration, QT interval, corrected QT (QTc) interval, RR interval, or heart rate” and the body weight ([1]; dosing or recovery phase) was “no drug-related effects on body weight or body weight gain”. The “doses well tolerated, no drug-related effects” value ([1]; oral, 28 consecutive days) was “up to 20 mg/kg/day”, the “clinical pathology test results” value ([1]; up to 20.0 mg/kg/day) was “had no effect on clinical pathology test results” and the pulmonary edema ([1]; up to 20 mg/kg/day, 28 days) was “no evidence whatsoever of pulmonary edema”. The TGI ([2]; 30 mg/kg bid, day 28) was 60%, the TGI ([2]; 55 mg/kg bid, day 28) was 80% and the “incidence of complete tumor regressions” value ([2]; 55 mg/kg bid, day 28) was 30%. For the same molecule, the “incidence of partial tumor regressions” value ([2]; 55 mg/kg bid, day 28) was 30%, the “incidence of tumor regressions” value ([2]; 55 mg/kg bid, day 28) was 60% and the “tolerability, body weight” value ([2]; mouse, in vivo) was “well tolerated, with no overt toxicity or significant body weight loss observed”. For the same molecule, the Protein binding (Protein binding, dog) was 94 % bound.
